Tests used:
[1] = test system: primary lung fibroblasts from scleroderma patients; test: RT-qPCR of pro-fibrotic mRNAs in TGF-β-treated primary lung fibroblasts; format: cell-based, human; conditions: peptide 10 ng/mL plus TGF-β 10 ng/mL, 24 hours, delta-delta Ct, GAPDH housekeeping
Description: Primary lung fibroblasts from scleroderma patients were treated with TGF-β alone, or with IP-10-1 (SEQ ID NO: 2; FIGS. 1A-1C), IP-10-2 (SEQ ID NO: 3; FIGS. 1D-1F), or IP-10-3 (SEQ ID NO: 4; FIGS. 1G-1I) peptide (10 ng/mL) in the presence or absence of TGF-β (10 ng/mL) for 24 hours and then analyzed by RT-qPCR for the fibrotic ECM markers tenascin C (FIGS. 1A, 1D, 1G), collagen 1 (FIGS. 1B, 1E, 1H) and fibronectin (FIGS. 1C, […], 1I). Treatment with TGF-β alone induced expression of mRNAs for tenascin C (TNC), collagen 1 (COL1A1), and fibronectin (FN1) in primary lung fibroblasts. When cells were treated with an IP-10 peptide in combination with TGF-β, the IP-10 peptides reduced or prevented induction in mRNA expression of TNC, COL1A1, and FN1.
Primary lung fibroblasts from scleroderma patients were plated in 6-well plates in complete medium and incubated overnight. The next day, the medium was changed to quiescent medium and the cells were incubated in this medium for 24 hours. The following day, cells were left untreated, treated with 10 ng/mL of IP-10-1 (SEQ ID NO: 2), IP-10-2 (SEQ ID NO: 3) or IP-10-3 (SEQ ID NO: 4) peptide, treated with 10 ng/mL TGF-β, or treated with the combination of peptide and TGF-β for 24 hours. Total RNA was extracted using the Qiagen miRNeasy kit (Qiagen) and treated with DNase1, according to the manufacturer's instructions. RNA was then quantified and converted to cDNA using the Clontech RNA to cDNA EcoDry Double Primed Premix (Takara). qPCR was performed using PowerUp Sybr Green (Invitrogen) on an Applied Biosystems Quant Studio 3 instrument. Primers were from IDT and were designed using IDT Primer Quest and NCBI Primer Blast tools. The delta-delta Ct method was used to determine relative expression of the pro-fibrotic mRNAs for tenascin C (TNC), collagen 1 (COL1A1), and fibronectin (FN1). GAPDH was used as a housekeeping gene.

CXCR3B isoform = molecular target: T1, CXCR3B isoform (Homo sapiens, UniProt P49682); conditions: described in WO 2013/032853 and WO 2015/112505; cited from earlier work
T1 construct: host or cells: dermal endothelial cells (as described in the cited PCT publications)
T1 sequence (P49682 1-415 isoform P49682-2): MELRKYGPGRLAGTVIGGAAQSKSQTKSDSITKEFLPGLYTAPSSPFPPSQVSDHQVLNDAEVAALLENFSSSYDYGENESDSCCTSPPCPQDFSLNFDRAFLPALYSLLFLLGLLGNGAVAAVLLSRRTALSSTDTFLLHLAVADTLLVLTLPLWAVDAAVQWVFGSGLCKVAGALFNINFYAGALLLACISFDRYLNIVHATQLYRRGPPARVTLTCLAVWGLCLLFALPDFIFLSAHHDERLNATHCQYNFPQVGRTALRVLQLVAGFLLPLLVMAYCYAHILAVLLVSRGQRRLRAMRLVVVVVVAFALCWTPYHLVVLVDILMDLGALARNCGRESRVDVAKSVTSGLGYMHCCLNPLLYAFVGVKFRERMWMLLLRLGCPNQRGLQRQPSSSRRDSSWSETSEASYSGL

angiogenesis = conditions: earlier work, not tested in anti-fibrotic applications; cited from earlier work

Row | Sequence | expression of collagen 1 (COL1A1) mRNA relative to treatment with TGF-β alone [1] | expression of fibronectin (FN1) mRNA relative to treatment with TGF-β alone [1] | expression of tenascin C (TNC) mRNA relative to treatment with TGF-β alone [1] | activation of the CXCR3B isoform (CXCR3B isoform) | inhibition of angiogenesis (angiogenesis)
1 | PESRVIKNLLRVVSKEKSRRSP [IP-10-2, CXCL10 (IP-10) peptide variant] | significantly reduced or prevented | significantly reduced or prevented | significantly reduced or prevented | – | –
2 | PESKVIKNLLKVASKERSKRSP [IP-10-1, CXCL10 (IP-10) peptide variant] | significantly reduced or prevented | significantly reduced or prevented | significantly reduced or prevented | – | –
3 | FAKAIKNFAKAVAKFA [IP-10-3, CXCL10 (IP-10) peptide variant] | significantly reduced or prevented | significantly reduced or prevented | significantly reduced or prevented | – | –
4 | PESKAIKNLLKAVSKEMSKRSP [IP-10p, CXCL10 peptide consisting of the α-helical domain (residues 77-98 of human CXCL10)] | – | – | – | activates the CXCR3B isoform | able to inhibit angiogenesis
